# Reference: patent US4361515A, “Antihyperlipemic dihydro-ML-236B derivatives, their preparation and use” (Sankyo Company, Limited, priority 1980, dated 1982)
# Legend:
# [1] = system: synthesis of cholesterol in a rat liver; test: Inhibitory activity against the biosynthesis of cholesterol in a rat liver; type: biochemical
# Procedure: 10. Inhibitory activity against the biosynthesis of cholesterol: a 50% inhibition of the synthesis of cholesterol in a rat liver is observed at a concentration of 0.04 μg/ml.
# [2] = Solubility in organic solvents; type: physicochemical
# [3] = Toxicity in mice, intraperitoneal administration; conditions: mouse, in vivo, ip, read-out: dose at which mice survive
Compound,concentration at which a 50% inhibition of the synthesis of cholesterol is observed [1] [µg/mL],Solubility ([2]; benzene),Solubility ([2]; hexane and petroleum ether),"Solubility ([2]; methanol, ethanol, acetone, ethyl acetate, chloroform and carbon tetrachloride)",MTD [3] [mg/kg]
CC1C=C2C=CC(C)C(CCC3CC(O)CC(=O)O3)C2C(O)C1 (centres unmarked) [MB-530A],0.04,soluble,insoluble,readily soluble,
"CCC(C)C(=O)OC1CCC(O)C2=CC(O)C(C)C(CCC3CC(O)CC(=O)O3)C21 (centres unmarked) [3',5'-dihydroxy-(DH.ML-236B), 3',5'-Dihydroxy-(DH.ML-236B)]",,,,,≤ 1
